Measured values taken from a melting point compilation (Tetko et al.; mined from patent text by program, amines drawn as free bases though some values may be those of a salt).
Non-standard residues stand in square brackets, D forms with d. Residues, ends and D or L forms follow the SMILES beside them. ξ: configuration not given here. *: point of attachment. Boc = CC(C)(C)OC(=O)*; Dha = C=C(N)C(=O)O; ξP = O=C(O)C1CCCN1

SMILES	melting point [°C]
CCCCC(=NO)C(C)(C)NOC(CNC(C)(C)C(CC)=NO)Cn1ccnc1[N+](=O)[O-] (stereo not given)	153 to 154
CC(=O)Oc1cccc(C2(N(C)C)CCC(=O)CC2)c1	51 to 53
C=C(NC(=O)C1CCCN1C(=O)OC(C)(C)C)C(=O)O (stereo not given) (Boc-[ξP]-[Dha]-OH)	154 to 156
Cc1ccc2c(c1)C(=O)c1ccc(C(=O)O)cc1S2(=O)=O	357
CCCc1c(COc2ccc(C(=O)c3cccc(C#N)c3)cc2)ccc(C(C)=O)c1O	146 to 148
NS(=O)(=O)c1ccc(C2=C(c3ccc(Cl)c(Cl)c3)CCC2)cc1	134 to 135
CCCOc1ccc(OC)c(-c2csc(N)n2)c1	76
NOc1ccc2c(c1)CCCC2=O	55.5 to 57
ClCc1cc(OCc2ccc3ccccc3n2)no1	126 to 127
CC(=O)OCC(=O)c1ccc(F)cc1F	54 to 56
O=C(Nc1ccc(OC(F)(F)F)cc1)N1CC(c2cc(C(F)(F)F)ns2)C(c2ccc(Cl)cc2)=N1 (stereo not given)	101 to 104
Cn1ncc(C(=O)N2CCOCC2)c1C(=O)Nc1ccn2nc(-c3ccnc(F)c3)nc2c1	> 280
O=C(O)c1nccc(-c2ccccc2)c1C(=O)O	146 to 148
COC(=O)C1C(=O)NC(C)C1c1c(Cl)cccc1Cl (stereo not given)	157 to 158
O=C(O)CC12CCC(=O)N1C(=O)CC2	177 to 180
COc1ccc(S(=O)(=O)C2(C(=O)NO)CCCC2)cc1	89 to 91
CN(C1CCN(Cc2ccc(F)cc2)CC1)S(=O)(=O)c1ccc(Nc2nccc(Nc3ccc(F)cc3)n2)cc1	129 to 131
CSC(=S)N1CCN(Cc2cc(OC(C)=O)ccc2O)CC1	124
CCC(=O)Nc1ccnn1-c1c(Cl)cc(Cl)cc1Cl	125
O=C(O)c1ccc(OCCCc2ccc(OCCCC3CCCCC3)cc2)c(C(=O)NC2CCCC(C(=O)O)C2)c1 (stereo not given)	160
CCCCC(CCC)c1ccc2[nH]c3cnc(C(=O)OCC)c(C)c3c2c1 (stereo not given)	225 to 228
CC(C)c1ccc(C(=O)CC(c2ccccc2)c2ccccc2)c(C(C)C)c1OS(N)(=O)=O	149 to 152
CNC(=O)NCCn1c(-c2ccc(CCN3CCOCC3)cc2)csc1=Nc1ccc(F)c(C)c1	167 to 171
CCN(C)C(=O)Nc1cc(C(C)(C)C)on1	88.5 to 89.5

SMILES	melting point [°C]
O=C(OCc1ccccc1)C(CO)N(C(=O)Cc1ccccc1)C(=O)OCc1ccccc1 (stereo not given)	59 to 60
O=C(c1ccccc1)c1ccc(-c2ccc(-c3ccc(Cl)cc3)s2)s1	165 to 175
O=C(CN1CCCC1=O)Nc1ccc(-c2ncc(C(=O)O)c(O)n2)cc1	> 320
CCC(C#N)Oc1nc2cc(OC)cc(OC)c2cc1-c1ccc(OC)cc1 (stereo not given)	89 to 90
CCn1c2c(c3cc(OC)c(OC)cc3c1=O)C(=O)c1cc3c(cc1-2)OCO3	291 to 293
CC(=O)O[C@H]1C[C@@H](n2ccc(N)nc2=O)[C@H](O)[C@@H]1O (racemic)	121 to 124
Cn1nnc2c(N)cc3nc(O)c(O)nc3c21	> 300
CCOc1c2c(nc3c1cnn3CC)C(=O)c1ccccc1CC2	150 to 152
CCc1nc(/C=C\c2cn(-c3ccccc3)nc2OCc2ccc(OCc3nc(-c4cccc(C(=O)OC)c4)oc3C)c(OC)c2)cs1	125 to 126
O=C(O)c1ccc(C=Cc2cc(=O)cc(-c3ccccc3)o2)cc1	> 300
C=C(C)c1ccc(-c2ccc(OC(C)=O)cc2)cc1	131 to 132
CCCCCCCCCCCCOC(=O)NCCC(=O)O	88 to 90
O=C(c1ccccc1Cl)N1Cc2c(-c3noc(C4CC4)n3)ncn2-c2ccccc21	254 to 256
CCCCCCCCCCCCCCOc1ccc2ccc(=O)oc2c1	59 to 60
Cc1oc2ccccc2c1C(=O)N(Cc1ccccc1)Cc1ccc2c(Br)c(O)ccc2c1	184 to 185
COc1cc2nc(Cn3cnc4c(N)ncnc43)n(-c3ccccc3Cl)c(=O)c2cc1OC	282 to 283
O=C(N[C@H](Cc1ccc(C(F)(F)F)cc1)[C@@H](O)c1cccc2ccccc12)c1ccc(F)c2ccccc12 (racemic)	195 to 196
CN(C)n1cc(C(=O)NCc2ccc(Cl)cc2)c(=O)c2ccccc21	170 to 172
CS(=O)(=O)NCCCCC(=O)Nc1nc2c(s1)CCCc1ccc(F)cc1-2	145 to 147
CCOC(=O)CCCCCNc1ccccc1	34 to 37
CCCCCCCC(=O)OCC(COC(=O)CCCCCCC)OCn1cnc2c(=O)[nH]c(N)nc21	165 to 166
Cc1cccc2cc(C(=O)N(C)C)c(C=CNc3ccccc3)nc12	143 to 146
CN(C)CCCOc1ccc(Nc2nccc(-c3ccncc3)n2)cc1	123 to 124
O=C1Nc2c(Br)cncc2C1(Br)Br	250

SMILES	melting point [°C]
Cc1cc(C(=O)N2Cc3ccc(C(=O)NCc4cccnc4)n3Cc3ccccc32)ccc1I	176 to 177
CC(O)(COc1ccc(S(=O)(=O)c2ccccc2)cc1)C(F)(F)F (stereo not given)	94 to 96
CCN(CC)CCCNC(=S)N1CC(Oc2ccc(C(F)(F)F)cc2)C1	109 to 110
NC1=NC=C(c2ccc(C(F)(F)F)cc2)c2ccccc2C1	167 to 170
O=C(O)c1nc2ccccc2nc1Cl	133 to 139
O=[N+]([O-])c1ccc(-c2ccc(-c3cn([C@H]4CN5CCC4CC5)nn3)s2)cn1	160
C#CC1(O)CCC2(C)C(CCC3C4CCC(C(C)=O)C4(C)C=CC32)C1 (stereo not given)	147 to 150
Cc1cc(SCc2sc(-c3ccc(F)cc3)nc2C)ccc1OCC(=O)O	45 to 46
CCOC(=O)C1=NOC2(CCC(C3CCCCC3)CC2)C1 (stereo not given)	64 to 71
CCCS(=O)(=O)Nc1c(C)c(C)c2c(c1C)C(c1ccc(C(C)C)cc1)CO2 (stereo not given)	133 to 134
CC(Cc1ccc(Cl)cc1Cl)NC(=O)c1ccccc1C(F)(F)F (stereo not given)	142
COc1ccc(N2CCN(C)CC2)cc1-c1cn[nH]c1N	174 to 178
Cc1nc2nc(-c3ccc(C4(N)CCC4)cc3)c(-c3ccccc3)cn2n1	207
N#CCc1ccc(-c2nc3ccccc3o2)cc1-c1cccc(C#N)c1	175 to 176
CN1C2CCCC1CC(NC(=O)c1cccc3oc(-c4ccccc4)nc13)C2 (stereo not given)	182 to 185
Cc1cccc(C2c3ccccc3S(=O)(=O)N2C)c1 (single isomer, unassigned; (+))	154
CCOC(=O)CCCCOc1ccc(-c2nc(N3CCOCC3)c3sc(CN4CCN(S(C)(=O)=O)CC4)cc3n2)cc1	110 to 114
CSc1nc2c(C)cccc2c2c1CCN2c1ccccc1C	111 to 113
Cc1ccccc1C1SC2(CCN(CCCC(=O)c3ccc(F)cc3)CC2)c2ccccc21 (stereo not given)	143 to 145
CCc1csc2[nH]c(=O)c(=O)[nH]c12	> 300
Cc1ccc(C2=NC(C)(C)C(c3ccncc3)C2)cc1 (stereo not given)	102
Cc1nn(-c2ccc(O)cc2F)c(=O)n1C(F)F	112 to 114
